Data as given in US20180186769A1, “6-AMINO-5-FLUORO-5-(FLUOROMETHYL)-2,3,4,5-TETRAHYDROPYRIDIN-2-YL-PHENYL-5-(METHOXY-D3)-PYRAZINE-2-CARBOXAMIDES AND FLUORINATED DERIVATIVES THEREOF AS BACE1 INHIBITORS” (H. Lundbeck A/S, priority 2016, published 2018).
pKi: −log10 of the molar value.

Columns and labels:
[1] = Clearance in microsomes, human; assay type: in vitro ADME; conditions: read-out: CLint, Human (L/h/kg) ± SD (converted)
Source text: (§1) Deuterated compounds were compared to their non-deuterated parent counterparts to determine the impact of deuteration on clearance results

[2] = Clearance in microsomes, rat; assay type: in vitro ADME; conditions: read-out: CLint, Rat (L/h/kg) ± SD (converted)
Source text: as §1

[3] = Clearance in microsomes, dog; assay type: in vitro ADME; conditions: read-out: CLint, Dog (L/h/kg) ± SD (converted)
Source text: as §1

[4] = Clearance in microsomes, cyno; assay type: in vitro ADME; conditions: cynomolgus monkey, read-out: CLint, Cyno (L/h/kg) ± SD (converted)
Source text: as §1

[5] = Clearance in hepatocytes, human; assay type: in vitro ADME; conditions: read-out: CLint, Human (L/h/kg) ± SD (converted)
Source text: as §1

[6] = Clearance in hepatocytes, rat; assay type: in vitro ADME; conditions: read-out: CLint, Rat (L/h/kg) ± SD (converted)
Source text: as §1

[7] = Clearance in hepatocytes, dog; assay type: in vitro ADME; conditions: read-out: CLint, Dog (L/h/kg) ± SD (converted)
Source text: as §1

[8] = Clearance in hepatocytes, cyno; assay type: in vitro ADME; conditions: cynomolgus monkey, read-out: CLint, Cyno (L/h/kg) ± SD (converted)
Source text: as §1

P-gp (MDR1) = assay: MDCK-MDR1 assay (permeability, efflux ratio); assay type: in vitro ADME; conditions: dog, Papp BA/Papp AB
Procedure: The permeability of the test compounds was assessed in MDCK-MDR1 cells that were cultured to confluency (4-6 days) in a 96 transwell plate. Test compounds were diluted with the transport buffer (HBSS+1% BSA) to a concentration of 0.5 μM and applied to the apical or basolateral side of the cell monolayer. Permeation of the test compounds from A to B direction or B to A direction was determined in triplicate over a 60-minute incubation time at 37° C. and 5% CO2 with a relative humidity of 95%. Test compounds were quantified by LC-MS/MS analysis based on the peaks area ratios of analyte/IS in both the receiver and donor wells of the transwell plate.
The apparent permeability coefficient Papp (cm/s) was calculated using the equation: […]
Where dCr/dt is the cumulative concentration of compound in the receiver chamber as a function of time (μM/s); Vr is the solution volume in the receiver chamber (0.05 mL on the apical side; 0.25 mL on the basolateral side); A is the surface area for the transport, i.e. 0.0804 cm^2 for the area of the monolayer; CO is the initial concentration in the donor chamber (μM).
Compounds are classified Pgp substrates when efflux ratio (Papp BA/Papp AB) is ≥2.

BACE1 [9] = target: T1, BACE1 (Homo sapiens, UniProt P56817); assay: BACE1 efficacy assay (FRET-based); assay type: biochemical; parameters: purchased Life Technologies P2985; conditions: 10 μM test compound
T1 sequence (P56817 46-501): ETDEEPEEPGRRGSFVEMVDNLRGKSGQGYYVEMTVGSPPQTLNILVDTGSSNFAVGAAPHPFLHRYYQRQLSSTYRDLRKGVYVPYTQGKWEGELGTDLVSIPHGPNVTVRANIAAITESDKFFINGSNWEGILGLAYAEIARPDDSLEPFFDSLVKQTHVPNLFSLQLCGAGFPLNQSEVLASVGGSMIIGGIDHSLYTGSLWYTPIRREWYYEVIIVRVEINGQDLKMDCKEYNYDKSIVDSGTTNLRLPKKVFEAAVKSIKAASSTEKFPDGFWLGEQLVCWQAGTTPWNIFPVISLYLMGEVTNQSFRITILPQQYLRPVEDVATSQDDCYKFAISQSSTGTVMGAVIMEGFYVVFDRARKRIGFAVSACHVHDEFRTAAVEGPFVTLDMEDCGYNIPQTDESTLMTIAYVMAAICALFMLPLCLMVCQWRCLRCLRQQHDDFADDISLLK
Procedure: The efficacy assay was performed as a FRET-based assay using a commercially available BACE1 kit (Life Technologies, P2985). 2 μl test compound at 10 μM (final concentration) and 15 μl BACE1 enzyme from the kit (final concentration 3 nM) were preincubated for 15 minutes at room temperature before addition of 15 μl of substrate from the kit (250 nM final concentration) and incubated for additional 90 minutes at room temperature. The assay plate was subsequently read in a Pherastar (Ex540/Em590). The enzyme activity observed in presence of test compound were normalized to the enzyme activity observed in presence of buffer and 10 μM (final concentration) of the high affinity BACE1 reference inhibitor (S)-6-[3-Chloro-5-(5-prop-1-ynyl-pyridin-3-yl)-thiophen-2-yl]-2-imino-3,6-dimethyl-tetrahydropyrimidin-4-one, respectively. The efficacy of the test compounds was evaluated at 10 μM (final concentration) and defined as the percent inhibition of the enzyme activity using the equation % inhibition=100%−normalized enzyme activity in percent.

BACE1 [10] = target: T1, BACE1; assay: BACE1 binding assay (SPA-based); parameters: biotin (biotinylated form); made in house; host or cells: Freestyle HEK293 cells; conditions: pH 4.5, 10 nM radioligand
Procedure: The binding assay was performed as SPA-based assay using a biotinylated form of human BACE1 recombinantly expressed and subsequently purified from Freestyle HEK293 cells. The binding assay was run in a 50 mM sodium acetate buffer, pH 4.5 containing 50 mM NaCl and 0.03% Tween-20 in white clear bottom 384 plates (Corning #3653). […] The plates were incubated for one hour at room temperature and counted in a Wallac Trilux counter. Total and non-specific binding were determined using buffer and 1 μM (final concentration) of the high affinity BACE1 reference inhibitor (S)-6-[3-chloro-5-(5-prop-1-ynyl-pyridin-3-yl)-thiophen-2-yl]-2-imino-3,6-dimethyl-tetrahydro-pyrimidin-4-one, respectively. For each test compound, a IC50 value (the concentration mediating 50% inhibition of the specific binding of the radioligand) was determined from concentration-response curve and used to calculate the Ki from the equation Ki=IC50/(1+L/Kd), where L and Kd are the final concentration of the radioligand used in the assay and the dissociation constant of the radioligand, respectively. The Kd of the radioligand was determined from saturation binding experiments.

Row | Structure (SMILES) | CLint scaled at 1 µM [1] [L/h/kg] | CLint scaled at 1 µM [2] [L/h/kg] | CLint scaled at 1 µM [3] [L/h/kg] | CLint scaled at 1 µM [4] [L/h/kg] | CLint scaled at 0.1 µM [5] [L/h/kg] | CLint scaled at 0.3 µM [5] [L/h/kg] | CLint scaled at 1 µM [5] [L/h/kg] | CLint scaled at 0.1 µM [6] [L/h/kg] | CLint scaled at 0.3 µM [6] [L/h/kg] | CLint scaled at 1 µM [6] [L/h/kg] | CLint scaled at 0.1 µM [7] [L/h/kg] | CLint scaled at 0.3 µM [7] [L/h/kg] | CLint scaled at 1 µM [7] [L/h/kg] | CLint scaled at 0.1 µM [8] [L/h/kg] | CLint scaled at 0.3 µM [8] [L/h/kg] | CLint scaled at 1 µM [8] [L/h/kg] | efflux ratio at 60 min, 0.5 μM (P-gp (MDR1)) | inhibition at 10 µM (BACE1 [9]) [%] | pKi (BACE1 [10]) | other results
1 | [2H]C([2H])([2H])Oc1ccc(C(=O)Nc2ccc(F)c([C@@]3(C(F)F)N=C(N)CCC3(F)F)c2)nc1 [Compound Y] | 0.5 | 1 | 21 | 12 | < 0.1 | < 0.1 | 0.29 | 1.4 | 1 | 2.1 | 98 | 84 | 57 | 80 | 32 | 14 |  |  |  | 
2 | COc1cnc(C(=O)Nc2ccc(F)c([C@]3(C)CC[C@@](F)(CF)C(N)=N3)c2)cn1 [Compound Z] | 0.51 | 1.3 | 25 | 34 | 1 | 0.95 | 0.72 | 1.7 | 1.5 | 1 | 112 | 101 | 64 | 137 | 135 | 75 |  |  |  | CLint scaled at 0.1 µM ([1]; 0.1 microM): 1 L/h/kg; CLint scaled at 0.3 µM ([1]; 0.3 microM): 0.75 L/h/kg; CLint scaled at 0.1 µM ([2]; 0.1 microM): 2.7 L/h/kg; CLint scaled at 0.3 µM ([2]; 0.3 microM): 1.8 L/h/kg; CLint scaled at 0.1 µM ([3]; 0.1 microM): 40 L/h/kg; CLint scaled at 0.3 µM ([3]; 0.3 microM): 31 L/h/kg; CLint scaled at 0.1 µM ([4]; 0.1 microM): 70 L/h/kg; CLint scaled at 0.3 µM ([4]; 0.3 microM): 61 L/h/kg
3 | [2H]C([2H])([2H])Oc1cnc(C(=O)Nc2cc(F)c(F)c([C@]3(C)CC[C@](F)(CF)C(N)=N3)c2)cn1 [Example 2, N-[3-[(2S,5R)-6-amino-5-fluoro-5-(fluoromethyl)-2-methyl-2,3,4,5-tetrahydropyridin-2-yl]-4,5-difluoro-phenyl]-5-(methoxy-d3)pyrazine-2-carboxamide] |  |  |  |  |  |  |  |  |  |  |  |  |  |  |  |  | 0.96 | 99 | 7.08 | 
4 | [2H]C([2H])([2H])Oc1cnc(C(=O)Nc2ccc(F)c([C@]3(CF)CC[C@](F)(CF)C(N)=N3)c2)cn1 [Example 3, N-[3-[(2S,5R)-6-amino-5-fluoro-2,5-bis(fluoromethyl)-2,3,4,5-tetrahydropyridin-2-yl]-4-fluoro-phenyl]-5-(methoxy-d3)pyrazine-2-carboxamide] |  |  |  |  |  |  |  |  |  |  |  |  |  |  |  |  | 0.85 | 97 | 7.17 | 
5 | [2H]C([2H])([2H])Oc1cnc(C(=O)Nc2ccc(F)c([C@]3(CF)CC[C@@](F)(CF)C(N)=N3)c2)cn1 [Example 4, N-[3-[(2S,5S)-6-amino-5-fluoro-2,5-bis(fluoromethyl)-2,3,4,5-tetrahydropyridin-2-yl]-4-fluoro-phenyl]-5-(methoxy-d3)pyrazine-2-carboxamide] |  |  |  |  |  |  |  |  |  |  |  |  |  |  |  |  | 0.73 | 97 | 7.85 | 
6 | [2H]C([2H])([2H])Oc1cnc(C(=O)Nc2cc(F)c(F)c([C@]3(C)CC[C@@](F)(CF)C(N)=N3)c2)cn1 [Example 5, N-[3-[(2S,5S)-6-amino-5-fluoro-5-(fluoromethyl)-2-methyl-2,3,4,5-tetrahydropyridin-2-yl]-4,5-difluoro-phenyl]-5-(methoxy-d3)pyrazine-2-carboxamide] |  |  |  |  |  |  |  |  |  |  |  |  |  |  |  |  | 0.77 | 100 | 8.01 | 
